Reference: US9586880B2, “Small molecule inhibitors of necroptosis” (President and Fellows of Harvard College, priority 2008, dated 2017)

Tests used:
[1] = tested on: FADD-deficient variant of human Jurkat T cells; assay: TNF-α induced necroptosis inhibition, ATP-based viability assessment; assay type: cell-based; conditions: 10 ng/mL human TNF-α, 24 hours, CellTiter-Glo viability; for EC50: Jurkat
Description: (§1) Evaluation of necroptosis inhibitory activity was performed using a FADD-deficient variant of human Jurkat T cells or with L929 cells treated with TNF-α as previously described (Degterev et al., Nat. Chem. Biol. 1:112 (2005) and Jagtap et al., J. Med. Chem. 50: 1886 (2007)). Utilizing these conditions the cells efficiently underwent necroptosis. For EC50 value determinations, cells were treated with 10 ng/mL of human TNF-α in the presence of increasing concentration of test compounds for 24 hours followed by ATP-based viability assessment.
(§2) ATP-based viability assessment: Briefly, necroptosis activity was performed using a FADD-deficient variant of human Jurkat T cells or L929 cells treated with TNF-α. For EC50 value determinations, cells (500,000 cells/mL, 100 μL per well in a 96-well plate) were treated with 10 ng/mL of human TNF-α in the presence of increasing concentration of test compounds for 24 hours at 37° C. in a humidified incubator with 5% CO2 followed by ATP-based viability assessment. Stock solutions (30 mM) in DMSO were initially prepared and then diluted with DMSO to give testing solutions, which were added to each test well. The final DMSO concentration was 0.5%. Eleven compound test concentrations (0.030-100 μM) were used. Each concentration was done in duplicate.
(§3) Cell viability assessments were performed using a commercial luminescent ATP-based assay kit (CellTiter-Glo, Promega, Madison, Wis.) according to the manufacturer's instructions. Briefly, 40 μL of the cell lysis/ATP detection reagent was added to each well. Plates were incubated on a rocking platform for 10 minutes at room temperature and luminescence was measured using a Wallac Victor 3 plate-reader (Perkin Elmer, Wellesley, Mass.). Cell viability was expressed as a ratio of the signal in the well treated with TNF-α and compound to the signal in the well treated with compound alone. This was done to account for nonspecific toxicity, which in most cases was <10%. EC50 values were calculated using nonlinear regression analysis of sigmoid dose-response (variable slope) curves from plots of log [I] verses viability values.

L929 cells = assay: as above; assay type: cell-based; conditions: 10 ng/mL human TNF-α, 24 hours, CellTiter-Glo viability; for EC50: Mus musculus, L929
Description: as §1, §2, §3

SMILES	EC50 [1] [µM]	EC50 Fadd −/− Jurkat [1]	also measured
C#CC1(O)c2ccccc2C=Cc2ccccc21 [(28)]	2.98	–	–
C#CC1(O)c2ccccc2CCc2ccccc21 [Compound (27)]	3.23	–	EC50 (L929 cells): 0.659 µM
C#CC1(O)c2ccccc2CCc2ccc(C)cc21 (stereo not drawn) [(46)]	–	Inactive	–
C#CC1(O)c2ccccc2-c2ccccc21 [(35)]	–	Inactive	–
O=C(CSc1nnnn1-c1ccccc1)N1N=CCC1c1ccccc1 (stereo not drawn) [Compound (16)]	0.629	–	EC50 (L929 cells): 73 µM
N#CC1=C(SCC(=O)Nc2nccs2)NC(=O)CC1c1ccccc1 (stereo not drawn) [(6)]	–	Partial activity	–
CNC(Cc1ccccc1)=C1C(=O)CC(C)(C)CC1=O [(67)]	2.25	–	EC50 (L929 cells): 10 µM
COc1cc(C2CC(=O)NC(SCC(=O)Nc3c(C)cc(C)cc3C)=C2C#N)cc(OC)c1OC (stereo not drawn) [(12)]	–	inactive	–
O=C(N1N=CCC1c1ccccc1)C12CC3CC(CC(C3)C1)C2 (stereo not drawn) [Compound (14)]	0.41	–	EC50 (L929 cells): 4.2 µM
O=c1c2c3c(sc2ncn1Cc1cccc2ccccc12)CCC3 [(53)]	> 30	–	–
Cc1ccc(CN(C)C(=O)C2CCCCC2)o1 [(66)]	2.62	–	EC50 (L929 cells): 47.1 µM
C#CC1(O)c2ccccc2CCc2ccc(Cl)cc21 (stereo not drawn) [(45)]	–	Inactive	–
CC#CC1(O)c2ccccc2CCc2ccccc21 [(40)]	–	Inactive	–
COc1ccc(C2CC(=O)NC(SCC(=O)Nc3nccs3)=C2C#N)cc1OC (stereo not drawn) [(4)]	0.354	–	–
C#CC1(O)c2ccccc2CCc2ccc(F)cc21 (stereo not drawn) [(32)]	2	–	–
CCN(CC)S(=O)(=O)c1ccc(C(=O)/N=c2\[nH]ccs2)cc1 [Compound (58)]	8.96	–	EC50 (L929 cells): 1.11 µM
CCOC(=O)C1=NNC(C(=O)c2ccccc2)C1c1ccc(Cl)cc1 (stereo not drawn) [(24)]	–	Inactive	–
O=c1cc(Cn2cnc3sc4c(c3c2=O)CCC4)c2ccccc2[nH]1 [(55)]	> 30	–	–
CCSCC(=O)Nc1ccc(F)cc1 [(64)]	14.1	–	EC50 L929 (L929 cells): Inactive
CCOC(=O)C1NN=C(C(=O)c2ccccc2)C1c1ccccc1 (stereo not drawn) [(23)]	–	Inactive	–
C#CC1(O)c2ccccc2CCc2c1ccc1ccccc21 (stereo not drawn) [(41)]	–	Inactive	–
N#CC1=C(SCC(=O)Nc2nccs2)NC(=O)CC1c1ccc(Cl)cc1 (stereo not drawn) [(3)]	0.823	–	–
CC(C)(O)C#CC1(O)c2ccccc2CCc2ccccc21 [(47)]	–	Inactive	–

SMILES	EC50 [1] [µM]	EC50 Fadd −/− Jurkat [1]	also measured
Cc1ccc(C(=O)C2=NNCC2c2ccccc2)cc1 (stereo not drawn) [(19)]	0.369	–	–
COc1ccc(F)cc1Cn1cnc2sc3c(c2c1=O)CCC3 [(51)]	10.9	–	–
C#CC1(O)c2ccccc2CCc2ccc(Br)cc21 (stereo not drawn) [(44)]	–	Inactive	–
O=c1c2c3c(sc2ncn1Cc1c(Cl)cccc1Cl)CCC3 [(57)]	0.936	–	–
CC(C)(C)OC(=O)Nc1ccc(-c2cc[nH]n2)cc1 [Compound (13)]	5.38	–	EC50 (L929 cells): 0.89 µM
Cc1sc2ncn(Cc3ccccc3)c(=O)c2c1C [(49)]	3.8	–	–
O=c1c2c3c(sc2ncn1Cc1cccc2cccnc12)CCC3 [(50)]	> 30	–	–
O=C(COc1ccccc1)N1CCc2ccccc21 [Compound (61)]	–	Inactive	–
Cc1ccc(Cn2ncc3ccccc32)cc1 [(65)]	3.62	–	EC50 L929 (L929 cells): Inactive
CCC1(O)c2ccccc2CCc2ccccc21 [(30)]	5.83	–	–
CCN1CCN(CC(=O)N2N=CCC2c2ccccc2)CC1 (stereo not drawn) [(18)]	0.41	–	–
C=C(Br)C1(Br)c2ccccc2CCc2ccccc21 [(37)]	–	Inactive	–
O=c1c2ccccc2ncn1Cc1ccc(Cl)cc1 [(56)]	> 30	–	–
C=CC1(O)c2ccccc2CCc2ccccc21 [(31)]	2.95	–	–
C#CC1(O)c2cc([N+](=O)[O-])ccc2CCc2ccc([N+](=O)[O-])cc21 [(43)]	–	Inactive	–
Cc1ccc2nc(SCC(=O)N3N=CCC3c3ccccc3)nc(C)c2c1 (stereo not drawn) [(26)]	–	Inactive	–
C=C(Cl)C1(Cl)c2ccccc2CCc2ccccc21 [(38)]	–	Inactive	–
COc1ccccc1C1CC(=O)NC(SCC(=O)Nc2nccs2)=C1C#N (stereo not drawn) [(7)]	2.38	–	–
CNS(=O)(=O)c1cccc(C(=O)OCC(=O)N2CCCc3ccccc32)c1 [(68)]	1.63	–	EC50 L929 (L929 cells): Inactive
Cn1ccnc1SCC(=O)N1N=CCC1c1ccccc1 (stereo not drawn) [(25)]	–	Inactive	–
N#Cc1ccc(Cn2cnc3sc4c(c3c2=O)CCC4)cc1 [(54)]	0.861	–	–
O=C(CSc1nc2ccccc2s1)N1N=CCC1c1ccccc1 (stereo not drawn) [(21)]	1.56	–	–
COc1ccc(Cn2cnc3sc4c(c3c2=O)CCC4)cc1F [(52)]	3.05	–	–

SMILES	EC50 [1] [µM]	EC50 Fadd −/− Jurkat [1]	also measured
Cc1s/c(=N\C(=O)C2=NNC(=O)CC2)[nH]c1-c1ccc(F)cc1 [(70)]	0.908	–	EC50 L929 (L929 cells): Inactive
N#CC1=C(SCC(N)=O)NC(=O)CC1c1ccccc1 (stereo not drawn) [(8)]	–	inactive	–
C#CC1(O)c2cc(I)ccc2CCc2ccc(I)cc21 [(42)]	–	Inactive	–
Clc1ccc(-c2cc[nH]n2)cc1 [(22)]	–	Inactive	–
O=C(CSc1ccc(Cl)cc1)N1N=CCC1c1ccccc1 (stereo not drawn) [(20)]	3.21	–	–
O=C(C1=NNCC1c1ccccc1)c1ccccc1 (stereo not drawn) [Compound (15)]	0.369	–	EC50 (L929 cells): 4.02 µM
COC(=O)C1C(=O)NC(SCC(=O)Nc2nccs2)=C(C#N)C1c1ccc(Cl)cc1 (stereo not drawn) [(5)]	25	–	–
N#CC1=C(SCC(=O)Nc2nccs2)NC(=O)CC1c1ccccc1F (stereo not drawn) [(2)]	0.769	–	–
OC1(C#CBr)c2ccccc2CCc2ccccc21 [(39)]	–	Inactive	–
c1ccc(C2CC3CC4(CCCC4)N2O3)cc1 (stereo not drawn) [Compound (62)]	0.668	–	EC50 (L929 cells): 10.1 µM
O=C(NCc1cccs1)C1CCCCC1 [(69)]	7.72	–	EC50 L929 (L929 cells): Inactive
COc1cc(C2CC(=O)NC(SCC(=O)Nc3nccs3)=C2C#N)cc(OC)c1OC (stereo not drawn) [(1)]	0.477	–	EC50 (L929 cells): 0.197 µM
O=c1c2c3c(sc2ncn1Cc1ccccc1)CCC3 [Compound (48)]	0.216	–	EC50 (L929 cells): 8.66 µM
C#CC1(O)CCCCCC1 [(34)]	–	Inactive	–
COc1ccc(NC(=O)CSC2=C(C#N)C(c3cc(OC)c(OC)c(OC)c3)CC(=O)N2)cc1 (stereo not drawn) [(9)]	–	inactive	–
O=C(Nc1ccccc1)N1N=CCC1c1ccccc1 (stereo not drawn) [(17)]	–	inconclusive	–
C#CC(O)(c1ccccc1)c1ccccc1 [(29)]	31.8	–	–
COc1cc(C2CC(=O)NC(SCC(=O)Nc3ccccc3)=C2C#N)cc(OC)c1OC (stereo not drawn) [(10)]	–	inactive	–
C#CC1(O)c2ccccc2CCc2c(F)cccc21 (stereo not drawn) [(33)]	4.79	–	–
COc1cc(C2CC(=O)NC(SCC(=O)Nc3ccc(F)cc3)=C2C#N)cc(OC)c1OC (stereo not drawn) [(11)]	–	inactive	–
O=C1NC(Cc2c[nH]c3ccccc23)C(=O)N1Cc1ccc(Cl)cc1 (stereo not drawn) [Compound (59)]	0.343	–	EC50 (L929 cells): 7.46 µM
C#CC1(OC)c2ccccc2CCc2ccccc21 [(36)]	–	Inactive	–
O=C(C1COc2ccccc2O1)N1CCc2ccccc21 (stereo not drawn) [Compound (60)]	0.629	–	EC50 (L929 cells): 23 µM
